Assay results as given in US12371691B2, “Nano complex for targeted repairing of neurovascular lesion, and preparation and use thereof” (SHANGHAI JIAOTONG UNIVERSITY SCHOOL OF MEDICINE, priority 2019, dated 2025).
Entries after “also recorded” stand apart in the source; their conditions may differ. No end group written: not given here.

Experiments:
[1] = system: Mouse-derived cerebrovascular endothelial cells bEnd3 cells; test: High-content quantitative analysis of cellular uptake of red fluorescence-labeled nano complexes; assay type: cell-based; details: DiI-labeled nano complexes modified with the targeted peptide, 5 μg/mL by lipid mass, 6 h; FIG. 3
Method: High-content quantitative analysis was performed to determine cellular uptake of each of the above-mentioned nano complexes. Mouse-derived cerebrovascular endothelial cells bEnd3 cells were seeded in a 96-well plate at a density of 5000/well and cultured for 24 h. The original culture solution was aspirated and discarded, and 100 μL of the above-mentioned 8 red fluorescence-labeled nanostructure solutions (5 μg/mL, calculated by lipid mass) were added, respectively; the mixture was incubated in a cell incubator for 6 h, then fixed with 3.7% formaldehyde at 37° C. for 10 min, nuclear stained with Hoechest for 10 min, washed three times with PBS, and then photographed and subjected to quantitative analysis with a high-content Target Activation procedure. […]
Moreover, a red fluorescence-labeled targeted nano complex was prepared as described in the method of Example 2. Cellular uptake of a targeted peptide-modified nano complex was subjected to high-content quantitative analysis. The cerebrovascular endothelial cells were treated with targeted peptide-modified nano complexes containing targeted peptides of different ratios (1500:1, 1000:1, 500:1, 250:1, 100:1, 30:1, 10:1, and 5:1, the molar ratio of the lipid to the targeted peptide); the mixture was incubated in a cell incubator for 6 h, then fixed, nuclear stained, and subjected to high-content quantitative analysis.

[2] = system: cerebral vessels of AD model mice; test: Comparison of vascular binding capacity, two-photon imaging of brain after tail vein administration; assay type: in vivo, mouse; details: DiI-labeled nano complexes modified with the targeted peptide, 3 hours, FIG. 4
Method: The AD model animal mice were administered via tail veins with the above-mentioned red fluorescence-labeled nano complexes modified with targeted peptides (containing 8 bridge structure peptides), and were sacrificed 3 hours later. The mice were perfused with normal saline until the blood was not red, and the brain thereof was taken and photographed by a two-photon microscope. The nano complexes bound on cerebral vessels were imaged, and Image J image analysis software was used to analyze the fluorescence intensity of the red fluorescence-labeled nano complexes bound on the cerebral vessels.

Substance: AC-Phe-Ala-Glu-Lys-Phe-Lys-Glu-Ala-Val-Lys-Asp-Tyr-Phe-Ala-Lys-Phe-Trp-Asp-Gly-Ser-Ser-Ser-Gly-Gly-Glu-Leu-Lys-Val-Leu-Met-Glu-Lys-Glu-Leu (Ac-FAEKFKEAVKDYFAKFWDGSSSGGELKVLMEKEL) [R8, targeted peptide with bridge Gly-Ser-Ser-Ser-Gly-Gly; tested as modifier of DiI-labeled nano complex]
- uptake of nano complex by cerebrovascular endothelial cells (bridge structure peptide screen) [1]: good effect on uptake

Substance: AC-Phe-Ala-Glu-Lys-Phe-Lys-Glu-Ala-Val-Lys-Asp-Tyr-Phe-Ala-Lys-Phe-Trp-Asp-Gly-Ala-Gly-Ala-Glu-Leu-Lys-Val-Leu-Met-Glu-Lys-Glu-Leu (Ac-FAEKFKEAVKDYFAKFWDGAGAELKVLMEKEL) [R6, targeted peptide with bridge Gly-Ala-Gly-Ala; tested as modifier of DiI-labeled nano complex]
- fluorescence intensity of nano complexes bound on cerebral vessels (bridge structure peptide screen) [2]: dominant targeted peptides
- uptake of nano complex by cerebrovascular endothelial cells (bridge structure peptide screen) [1]: good effect on uptake; also recorded: better uptake

Substance: AC-Phe-Ala-Glu-Lys-Phe-Lys-Glu-Ala-Val-Lys-Asp-Tyr-Phe-Ala-Lys-Phe-Trp-Asp-Ile-Ala-Ile-Glu-Leu-Lys-Val-Leu-Met-Glu-Lys-Glu-Leu (Ac-FAEKFKEAVKDYFAKFWDIAIELKVLMEKEL) [R5, targeted peptide with bridge Ile-Ala-Ile; tested as modifier of DiI-labeled nano complex]
- fluorescence intensity of nano complexes bound on cerebral vessels (bridge structure peptide screen) [2]: dominant targeted peptides
- uptake of nano complex by cerebrovascular endothelial cells (bridge structure peptide screen) [1]: good effect on uptake; also recorded: better uptake

Substance: AC-Phe-Ala-Glu-Lys-Phe-Lys-Glu-Ala-Val-Lys-Asp-Tyr-Phe-Ala-Lys-Phe-Trp-Asp-Ile-Ala-Glu-Leu-Lys-Val-Leu-Met-Glu-Lys-Glu-Leu (Ac-FAEKFKEAVKDYFAKFWDIAELKVLMEKEL) [R2, targeted peptide with bridge Ile-Ala; tested as modifier of DiI-labeled nano complex]
- uptake of nano complex by cerebrovascular endothelial cells (bridge structure peptide screen) [1]: good effect on uptake

Substance: AC-Phe-Ala-Glu-Lys-Phe-Lys-Glu-Ala-Val-Lys-Asp-Tyr-Phe-Ala-Lys-Phe-Trp-Asp-Gly-Gly-Glu-Leu-Lys-Val-Leu-Met-Glu-Lys-Glu-Leu (Ac-FAEKFKEAVKDYFAKFWDGGELKVLMEKEL) [R1, targeted peptide with bridge Gly-Gly; tested as modifier of DiI-labeled nano complex]
- fluorescence intensity of nano complexes bound on cerebral vessels (bridge structure peptide screen) [2]: dominant targeted peptides
- uptake of nano complex by cerebrovascular endothelial cells (bridge structure peptide screen) [1]: good effect on uptake; also recorded: better uptake

Substance: AC-Phe-Ala-Glu-Lys-Phe-Lys-Glu-Ala-Val-Lys-Asp-Tyr-Phe-Ala-Lys-Phe-Trp-Asp-Gly-Ser-Gly-Glu-Leu-Lys-Val-Leu-Met-Glu-Lys-Glu-Leu (Ac-FAEKFKEAVKDYFAKFWDGSGELKVLMEKEL) [R4, targeted peptide with bridge Gly-Ser-Gly; tested as modifier of DiI-labeled nano complex]
- fluorescence intensity of nano complexes bound on cerebral vessels (bridge structure peptide screen) [2]: dominant targeted peptides; also recorded: optimal targeted peptide
- uptake of nano complex by cerebrovascular endothelial cells (bridge structure peptide screen) [1]: good effect on uptake; also recorded: better uptake; also recorded: best uptake

Substance: AC-Phe-Ala-Glu-Lys-Phe-Lys-Glu-Ala-Val-Lys-Asp-Tyr-Phe-Ala-Lys-Phe-Trp-Asp-Ile-Gly-Glu-Leu-Lys-Val-Leu-Met-Glu-Lys-Glu-Leu (Ac-FAEKFKEAVKDYFAKFWDIGELKVLMEKEL) [R3, targeted peptide with bridge Ile-Gly; tested as modifier of DiI-labeled nano complex]
- uptake of nano complex by cerebrovascular endothelial cells (bridge structure peptide screen) [1]: good effect on uptake

Substance: AC-Phe-Ala-Glu-Lys-Phe-Lys-Glu-Ala-Val-Lys-Asp-Tyr-Phe-Ala-Lys-Phe-Trp-Asp-Gly-Gly-Ser-Gly-Gly-Glu-Leu-Lys-Val-Leu-Met-Glu-Lys-Glu-Leu (Ac-FAEKFKEAVKDYFAKFWDGGSGGELKVLMEKEL) [R7, targeted peptide with bridge Gly-Gly-Ser-Gly-Gly; tested as modifier of DiI-labeled nano complex]
- uptake of nano complex by cerebrovascular endothelial cells (bridge structure peptide screen) [1]: good effect on uptake
